Values belong to the compound of their own block, whether it stands above or below them.
Tests used:
[1] = tested on: Parkinson's Disease; settings: cited from earlier work
[2] = tested on: spontaneously hypertensive rats; experiment: Diuretic effects in spontaneously hypertensive rats; type: in vivo, rat; settings: 3.0 mg/kg i.v., 2 hour interval
Description: Male, spontaneously hypertensive rats (SHR), weighing 285-350 grams were used to evaluate the diuretic effects of one of the compounds of the invention. Following an overnight fasting period with free access to drinking water, the rats received an intragastric fluid load of 0.9 saline at 5% of their body weight. Simultaneously with the load, the rats were dosed with a test compound or vehicle and placed individually in stainless steel metabolic cages where they had access to drinking water throughout the duration of the experiment. For intravenous administration, the rats were instrumented with indwelling cannulas placed into the jugular vein at least one week prior to the experiment.
Urine was collected at 2 and 4 hours following drug administration. The volume of excreted urine at each collection interval was measured accurately and the samples were analyzed for sodium, potassium and chloride ions. Sodium and potassium were measured using a Digital Readout Flame Photometer (Instrumentation Labs). Chloride was measured by the method of Shales and Shales, J Biol Chem 140:879 (1941). The statistical analysis of the data was computed by an off-line computer program. In this program, a comparison test is made between the vehicle (control) group and each treatment group for all variables at each time interval of the experiment. The test of statistical significance is based on the Student's t-test, where the calculated t is a measure of the probability density function.
A control group of six rats received 0.1 mg/kg of saline solution acidified by ascorbic acid (0.3 mL). This solution was also the vehicle for the test compound.

[3] = target: dopamine D-2 receptor (Rattus norvegicus, UniProt P61169); experiment: biochemical; type: binding; settings: rat caudate, [125I]-p-aminophenylethyl spiroperidol; read-out: D-2 Ki
Description: Homogenized rat caudate was the source of the D-2 receptors. […] The molar affinity of the compound for the receptor binding site was calculated by the same method used for the D-1 receptor assay, assuming a competitive interaction between the compound and the radiolabeled ligand.

[4] = tested on: dopamine D-1 receptor; settings: dopamine = 100; goldfish retina or rat striatum
Description: In order to determine agonist activity, cell-free tissue homogenates are incubated in an ionic buffer solution containing ATP and the compound being evaluated. The tissue was obtained from either goldfish retina or rat striatum.

[5] = tested on: anesthetized dogs; experiment: Cardiovascular pharmacology - hemodynamic studies in anesthetized dogs; type: in vivo, dog (Beagle); settings: cumulative intraaortic infusion above renal arteries; dose ranges (g/kg/min): 2A 3-10, 3 1-10, 35 1-3, 36 1-10, 37 1-30
Description: Male Beagle dogs were anesthetized with pentobarbital (30 mg/kg. i.v.) and maintained with i.v. infusion (Abbott/Shaw Life Care Pump, Model II/D) to maintain stable cardiovascular function. The dogs were […] with a cuffed endotracheal tube and ventilated with room air by means of a positive pressure respiratory pump. Expired respiratory CO2 was monitored with a Beckman LB-2 gas analyzer and maintained at 5% by appropriate pump adjustments. The dogs were maintained at a body temperature of 37.5°±1.0° C. with a thermostatically controlled animal table. Polyethylene catheters were placed in the abdominal aorta via the femoral and carotid arteries for blood pressure and left ventricular pressure recordings. A Swan-Ganz thermodilution catheter with a 15 cm proximal port was placed in the jugular vein for central venous and pulmonary arterial recordings and for determination of cardiac output (American Edwards Cardiac Output Computer, Model COM-1). Heart rate and electrocardiogram (ECG) recordings were made from a Lead II ECG connection. […] A calibrated electromagnetic flow probe (Carolina Medical Electronics) was positioned around the renal artery. The abdominal cavity is closed with wound clips. Recordings were made on a Grass polygraph. An additional small polyethylene catheter was inserted into a branch of the left femoral artery and the tip positioned in the aorta above the renal arteries. […] A thirty-fold dose-response-curve was administered by varying flow rate from 0.01 to 0.30 mL/minute.

[6] = tested on: rats; settings: cited from earlier work

Sequence of dopamine D-2 receptor (P61169 whole entry): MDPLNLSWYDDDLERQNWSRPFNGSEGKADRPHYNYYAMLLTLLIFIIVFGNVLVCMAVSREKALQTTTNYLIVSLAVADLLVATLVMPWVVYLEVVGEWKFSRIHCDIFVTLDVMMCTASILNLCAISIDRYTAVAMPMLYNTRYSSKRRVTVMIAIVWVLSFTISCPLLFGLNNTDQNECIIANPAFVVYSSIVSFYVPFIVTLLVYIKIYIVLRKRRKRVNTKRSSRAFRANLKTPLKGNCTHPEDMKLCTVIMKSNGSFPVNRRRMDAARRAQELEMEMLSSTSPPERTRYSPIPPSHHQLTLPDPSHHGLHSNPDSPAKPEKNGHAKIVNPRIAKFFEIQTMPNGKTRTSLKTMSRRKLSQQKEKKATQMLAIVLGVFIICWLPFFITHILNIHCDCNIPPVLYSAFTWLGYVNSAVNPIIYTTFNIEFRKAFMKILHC

Structure (SMILES): CC(C)C[C@H]1C(=O)N2CCC[C@H]2[C@]2(O)O[C@](NC(=O)[C@@H]3C=C4c5cccc6[nH]c(Br)c(c56)C[C@H]4N(C)C3)(C(C)C)C(=O)N12 [bromocryptine]
effect on L-DOPA requirement [1]: lowers the amount of L-DOPA required to achieve the maximal therapeutic response

Ki [3]: > 10 µM
Intrinsic Activity (adenylate cyclase assay) [4]: 56
Structure (SMILES): Br.NCC1=CC(c2ccccc2)Cc2c1ccc(O)c2O (stereo not shown) [Example 2A, 1-Aminomethyl-5,6-dihydroxy-3-phenyl-3,4-dihydronaphthalene Hydrobromide]
Urine potassium ([2]; control 0.29, n = 6): 0.55 meq/kg
Urine sodium ([2]; control 1.60, n = 6): 2.35 meq/kg
Urine chloride ([2]; control 1.87, n = 6): 2.71 meq/kg
Urine volume ([2]; control 13.02, n = 6): 22.57 mL/kg
Max Decrease MAP (mean arterial blood pressure) [5]: 32%
Max Increase RBF (renal blood flow) [5]: 27%

Structure (SMILES): Oc1cc2c(cc1O)C(c1ccccc1)CNCC2 (stereo not shown) [SKF 38393]
food intake [6]: decrease food intake

— US5621133A (priority 1995, dated 1997)
